Assays:
[1] = tested on: GALAP (catchweed bedstraw); experiment: Pre-emergence herbicidal activity, cool season; format: in vivo, Galium aparine; settings: lowest tested rate with 80% or greater inhibition; rates 300, 100, 30, 10 g/ha; about 14 days
Method: (§1) Tables 5 to 8 summarize results of tests conducted as described below to determine the pre-emergence herbicidal activity, in the form of a GR80 value, of illustrative compounds of this invention. […] Compounds of the invention were typically applied at rates of 300, 100, 30, and 10 g/ha. Where herbicidal activity was evident but 80% inhibition was not achieved at the highest rate tested, an asterisk (*) is shown in the following tables.
(§2) The pre-emergence tests were conducted by the following procedure. Topsoil was sieved to pass through a 1.27 cm screen. Fertilizer was added to the topsoil and the mixture was then sterilized by heating. The topsoil mixture was placed in a pot and compacted to a depth of 1.0 to 1.25 cm from the top of the pot. Seeds of each of several monocotyledonous and dicotyledonous annual plant species were placed on top of the soil. Additional soil was subsequently placed over the seeds to level-fill the pot. A known amount of each test compound dissolved or suspended in an appropriate organic solvent was diluted with a 50:50 mix of acetone and water and applied to the surface of the soil. After treatment the plants were placed in a greenhouse where they received 0.64 cm of overhead irrigation. All subsequent watering consisted of a light overhead mist and/or subirrigation as needed for germination and growth. Tables 5 and 6 below relate to warm season plant species which were placed after pre-emergence treatment in a greenhouse with a 30/21° C. day/night temperature regime. Tables 7 and 8 below relates to cool season plant species placed after pre-emergence treatment in a greenhouse or growth chamber with an 18/13° C. day/night temperature regime.
(§3) Approximately 14 days after planting and treating, the plants were observed and herbicidal efficacy recorded as percent inhibition by comparison with untreated plants.
(§4) The plant species usually regarded as weeds which were utilized in the tests are identified in the tables below according to the following legend, in which “d” indicates a dicotyledonous species and “m” a monocotyledonous species. All monocotyledonous species included in the tests herein are grasses.

[2] = tested on: POLCO (wild buckwheat); experiment: Pre-emergence herbicidal activity, cool season; format: in vivo, Polygonum convolvulus; settings: lowest tested rate with 80% or greater inhibition; rates 300, 100, 30, 10 g/ha; about 14 days
Method: as §1, §2, §3, §4

[3] = tested on: SINAR (wild mustard); experiment: Pre-emergence herbicidal activity, cool season; format: in vivo, Sinapis arvensis; settings: lowest tested rate with 80% or greater inhibition; rates 300, 100, 30, 10 g/ha; about 14 days
Method: as §1, §2, §3, §4

[4] = tested on: VERPE (creeping speedwell); experiment: Pre-emergence herbicidal activity, cool season; format: in vivo, Veronica persicaria; settings: lowest tested rate with 80% or greater inhibition; rates 300, 100, 30, 10 g/ha; about 14 days
Method: as §1, §2, §3, §4

[5] = tested on: SASKR (russian thistle); experiment: Pre-emergence herbicidal activity, cool season; format: in vivo, Salsola kali; settings: lowest tested rate with 80% or greater inhibition; rates 300, 100, 30, 10 g/ha; about 14 days
Method: as §1, §2, §3, §4

[6] = tested on: STEME (common chickweed); experiment: Pre-emergence herbicidal activity, cool season; format: in vivo, Stellaria media; settings: lowest tested rate with 80% or greater inhibition; rates 300, 100, 30, 10 g/ha; about 14 days
Method: as §1, §2, §3, §4

[7] = tested on: LAMPU (purple deadnettle); experiment: Pre-emergence herbicidal activity, cool season; format: in vivo, Lamium purpureum; settings: lowest tested rate with 80% or greater inhibition; rates 300, 100, 30, 10 g/ha; about 14 days
Method: as §1, §2, §3, §4

[8] = tested on: AGSST (creeping bentgrass); experiment: Pre-emergence herbicidal activity, cool season; format: in vivo, Agrostis stolonifera; settings: GR80 = lowest tested rate (300, 100, 30, 10 g/ha) with 80% or greater inhibition; approx. 14 days after treating; 18/13° C.
Method: as §1, §2, §3, §4

[9] = tested on: PANMI (wild proso millet); experiment: Pre-emergence herbicidal activity, warm season; format: in vivo, Panicum miliaceum; settings: GR80 = lowest tested rate (300, 100, 30, 10 g/ha) with 80% or greater inhibition; approx. 14 days after treating; 30/21° C.
Method: as §1, §2, §3, §4

[10] = tested on: SETVI (green foxtail); experiment: Pre-emergence herbicidal activity, cool season; format: in vivo, Setaria viridis; settings: GR80 = lowest tested rate (300, 100, 30, 10 g/ha) with 80% or greater inhibition; approx. 14 days after treating; 18/13° C.
Method: as §1, §2, §3, §4

SMILES | Pre-emergence activity GR80, GALAP [1] | Pre-emergence activity GR80, POLCO [2] | Pre-emergence activity GR80, SINAR [3] | Pre-emergence activity GR80, VERPE [4] | Pre-emergence activity GR80, SASKR [5] | Pre-emergence activity GR80, STEME [6] | Pre-emergence activity GR80, LAMPU [7] | Pre-emergence activity (GR80) AGSST [8] [g/ha] | Pre-emergence activity (GR80) PANMI [9] [g/ha] | Pre-emergence activity (GR80) SETVI [10] [g/ha]
O=C(N1CCOCC1)n1cnc(S(=O)(=O)C(F)F)n1 [Example 25] | 300 g/ha | [empty] | [empty] | [empty] | [empty] | [empty] | 300 g/ha |  |  | 
COCCN(C)C(=O)n1cnc(S(=O)(=O)C(F)F)n1 [Example 29] | [empty] | [empty] | 300 g/ha | 100 g/ha | 300 g/ha | 300 g/ha | 300 g/ha | 300 |  | 
CCN(CC)C(=S)n1cnc(S(=O)(=O)C(F)F)n1 [Example 35] | 100 g/ha | 100 g/ha | 100 g/ha | 100 g/ha | [empty] | [empty] | 300 g/ha |  |  | 
CN(C(=O)n1cnc(S(=O)(=O)C(F)(F)Br)n1)c1ccccc1 [Example 38] | [empty] | [empty] | [empty] | [empty] | [empty] | [empty] | [empty] |  |  | 
C#CCN(C)C(=O)n1cnc(S(=O)(=O)C(F)(F)Br)n1 [Example 42] | 300 g/ha | [empty] | [empty] | [empty] | [empty] | [empty] | [empty] | 100 | 300 | 
CCSC(F)(F)S(=O)(=O)c1ncn(C(=O)N(C)c2ccccc2)n1 [Example 50] | 100 g/ha | [empty] | [empty] | [empty] | [empty] | 300 g/ha | [empty] | 30 | 300 | 
C#CCN(C)C(=O)n1cnc(S(=O)(=O)C(F)(F)SCC)n1 [Example 54] | [empty] | 100 g/ha | [empty] | 300 g/ha | [empty] | [empty] | [empty] |  | 300 | 
O=C(N1CCOCC1)n1cnc(S(=O)(=O)C(F)(F)C(F)F)n1 [Example 60] | [empty] | [empty] | [empty] | [empty] | [empty] | [empty] | [empty] |  |  | 
CN(C(=O)n1cnc(S(=O)(=O)C(F)(F)C(F)F)n1)c1ccccc1 [Example 62] | [empty] | [empty] | [empty] | [empty] | [empty] | [empty] | 300 g/ha |  |  | 
O=C(N1CCOCC1)n1cnc(S(=O)(=O)C(F)(F)C(F)(F)Br)n1 [Example 72] | [empty] | 300 g/ha | [empty] | [empty] | [empty] | [empty] | [empty] |  |  | 
CN(C(=O)n1cnc(S(=O)(=O)C(F)(F)C(F)(F)Br)n1)c1ccccc1 [Example 74] | [empty] | [empty] | 300 g/ha | 300 g/ha | 300 g/ha | [empty] | 300 g/ha |  | 300 | 
C=CCN(C)C(=O)n1cnc(S(=O)(=O)C(F)(F)C(F)(F)Br)n1 [Example 77] | [empty] | [empty] | [empty] | [empty] | [empty] | [empty] | [empty] | 300 |  | 
CN(Cc1ccccc1)C(=O)n1cnc(S(=O)(=O)C(F)(F)C(F)(F)Br)n1 [Example 80] | [empty] | [empty] | [empty] | [empty] | [empty] | [empty] | [empty] |  | 300 | 300
CN(C(=O)n1cnc(S(=O)(=O)C(F)(F)Cl)n1)c1ccccc1 [Example 86] | 300 g/ha | [empty] | 300 g/ha | 100 g/ha | 300 g/ha | [empty] | 100 g/ha |  |  | 
C#CCN(C)C(=O)n1cnc(S(=O)(=O)C(F)(F)Cl)n1 [Example 90] | [empty] | [empty] | 300 g/ha | 10 g/ha | 30 g/ha | [empty] | [empty] |  |  | 

— patent US6461997B1, “Triazole sulfones having herbicidal activity” (Monsanto Technology LLC, priority 1999, dated 2002)
